Reference: patent US20260076949A1, “STABLE MONOHYDRATE OF DF2755A AND PROCESS FOR ITS PREPARATION” (Dompe' Farmaceutici SPA, priority 2023, published 2026)
Values belong to the compound of their own block, whether it stands above or below them.

Legend:
[1] = Stability test of anhydrous form in climatic chamber (50% R.H., about 25° C., 24 hours); type: physicochemical
Method: (§1) • Instrument: Mettler DL38, V30 or equivalent • Electrode: Double platinum pin electrode DM 143-SC for Karl Fischer titration. • Titrant: Karl Fischer reagent 5 mg H2O/ml • Solvent: 30 ml of methanol previously neutralized with Karl Fischer reagent. • Procedure: about 0.2 g of the product, accurately weighed, were dissolved in the solvent and titrated with the Karl Fischer reagent.

CXCR2 = target: T1, CXCR2 (Homo sapiens, UniProt P25025); details: background, literature; cited from earlier work
T1 sequence (P25025 1-360): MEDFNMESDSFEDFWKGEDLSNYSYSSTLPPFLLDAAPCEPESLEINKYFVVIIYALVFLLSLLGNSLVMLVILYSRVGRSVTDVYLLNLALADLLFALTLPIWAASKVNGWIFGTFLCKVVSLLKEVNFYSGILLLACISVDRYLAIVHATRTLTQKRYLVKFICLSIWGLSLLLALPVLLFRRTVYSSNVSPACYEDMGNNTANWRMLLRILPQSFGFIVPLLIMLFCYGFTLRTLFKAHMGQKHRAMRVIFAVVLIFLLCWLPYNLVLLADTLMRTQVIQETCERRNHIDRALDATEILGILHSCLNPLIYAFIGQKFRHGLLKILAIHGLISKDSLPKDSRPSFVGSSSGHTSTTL

[2] = background, literature; cited from earlier work
CXCR1 = target: T2, CXCR1 (Homo sapiens, UniProt P25024); details: background, literature; cited from earlier work
T2 sequence (P25024 1-350): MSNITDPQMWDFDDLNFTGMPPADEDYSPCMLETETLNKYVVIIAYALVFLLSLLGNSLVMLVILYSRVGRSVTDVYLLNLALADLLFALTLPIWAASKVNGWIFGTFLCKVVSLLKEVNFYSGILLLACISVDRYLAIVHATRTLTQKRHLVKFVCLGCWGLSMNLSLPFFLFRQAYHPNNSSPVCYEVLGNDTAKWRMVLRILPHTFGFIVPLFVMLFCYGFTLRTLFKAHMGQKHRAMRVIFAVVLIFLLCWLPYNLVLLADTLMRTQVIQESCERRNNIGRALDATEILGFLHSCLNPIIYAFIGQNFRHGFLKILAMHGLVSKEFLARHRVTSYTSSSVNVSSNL

[3] = Tapped and bulk density (Ph. Eur. 2.9.34), compressibility index, Hausner ratio; type: physicochemical
Method: Tapped and Bulk Density were determined with a density tester ERWEKA SMV 102 (Heusenstamm, Germany) according to European Pharmacopeia (Ph. Eur. 2.9.34).
Compressibility Index was calculated according to the formula:
C.I.=100×(tapped density−bulk density)/tapped density.
Hausner ratio was calculated according to the formula:
H.r.=tapped density/bulk density

[4] = Particle size distribution (Malvern Mastersizer 3000, Aero S); type: physicochemical; details: powder of Example 3A
Method: Particle Size Distribution was measured by Malvern Mastersizer 3000 using Aero S accessory.

[5] = Stability test under conditions A (30° C. and 65% R.H.); type: physicochemical
Method: (§2) The monohydrate DF2755A was then subjected to stability tests under the following conditions: • A) at 30° C. and 65% R.H. (up to 18 months) and • B) at 40° C. and 75% R.H. (accelerated stability up to 12 months).
(§3) The samples were analysed for appearance, water content, HPLC purity, HPLC assay, HPLC enantiomeric purity and DSC thermal behaviour.

[6] = Water content by Karl-Fischer of the prepared product; type: physicochemical; details: product as prepared by controlled hydration
Method: as §1
[formula] • where • V=ml of the Karl Fischer reagent used in the titration • e=equivalent of the Karl Fischer reagent (mg H2O/ml) • w=weight of the sample in g
(§4) The analysis was carried out on three samples and the results averaged. The limit had to be not more than 10.0%.

[7] = Stability test under accelerated conditions B (40° C. and 75% R.H.); type: physicochemical; set-up: key to Appearance: Compl.: Compl: compliant
Method: • Apparatus: Agilent HP 1100, HP 1200 or equivalent HPLC system with UV detector • Detector: wavelength: 220 nm • Column: BDS Hypersyl C18, 250×4.6 mm, 5 μm (Thermo) or equivalent • Column temperature: 35° C. • Mobile phase: (A) Buffer solution KH2PO4 0.025M (pH 3.0). Procedure: dissolve 3.4 g of potassium dihydrogen phosphate in water and dilute to 1000 ml with water; adjust to pH 3.0 with dilute phosphoric acid or with potassium hydroxide solutions. (B) acetonitrile. • Flow: 1.3 ml/minute • Injection Volume: 10 μl • Time between injections: 26 min • Diluent: H2O/CH3CN (40/60) • Relative retention time: DF 2755 Rt 11.8 min • Gradient: Table 2
• Chromatographic conditions • Apparatus: Agilent HP 1100, HP 1200 or equivalent HPLC system with UV detector • Detector: wavelength: 294 nm • Column: Chiralpak AS-RH, 150×4.6 mm […] (Daicel) or equivalent • Column temperature: 35° C. • Mobile phase: (A) Buffer solution KH2PO4 0.025M (pH 3.0) Procedure: dissolve 3.4 g of potassium dihydrogen phosphate in water and dilute to 1000 ml with water; adjust to pH 3.0 with dilute phosphoric acid or with potassium hydroxide solutions; (B) acetonitrile • Flow: 0.7 ml/minute • Injection volume: 10 μl • Time between injections: 45 min • Diluent: H2O/CH3CN (40/60) • Eluent: 70% Mobile phase A, 30% Mobile phase B
as §1, §4, §2, §3

[8] = 50% R.H., about 25° C., 24 hours

Appearance after exposure [1, 8]: sticky hydrated solid | Water content measured by Karl Fischer analysis after exposure [1, 8]: 17% | Amount of by-product of hydroxylation at position 4 of the thiazole ring (1H-NMR) ([1]; after exposure to humidity, about 25° C., 24 hours): about 50 % mol/mol | Hygroscopicity ([1]; anhydrous form, absorbs water from the environment): highly hygroscopic | Stability conclusion ([1]; under the test conditions (50% R.H., about 25° C., 24 hours)): both physically and chemically unstable
SMILES: C[C@H](C(=O)[O-])c1ccc(Nc2nc(C(F)(F)F)cs2)cc1.[Na+] [anhydrous DF2755A, sodium (2S)-2-(4-{[4-(trifluoromethyl)-1,3-thiazol-2-yl]amino}phenyl) propanoate]
Inhibitory activity of CXCR2 receptor (CXCR2): selective dual potent inhibitory activity | Oral pharmacokinetic profile [2]: favorable | Inhibitory activity of CXCR1 receptor (CXCR1): selective dual potent inhibitory activity

Compressibility index ([3]; 100×(tapped density−bulk density)/tapped density): 30.7 | Bulk density ([3]; powder of Example 3A): 0.178 g/mL | Tapped density ([3]; powder of Example 3A): 0.256 g/mL | Hausner ratio ([3]; tapped density/bulk density): 1.44 | Particle size distribution D(0.1) [4]: 2.09 μm | Particle size distribution D(0.5) [4]: 7.86 μm | Particle size distribution D(0.9) [4]: 25.42 μm | Time completely stable ([5]; 30° C. and 65% R.H.): ≥ 18 months | Water content by Karl Fisher method [6]: 5.27 % by weight | Assay % (HPLC) ([7]; 40° C./75% R.H., 0 months): 97.40% | DFL23803 (HPLC) by-product content ([7]; 40° C./75% R.H., 0 months): ≤0.11% | Enantiomeric purity % (HPLC): DF2703Y content ([7]; 40° C./75% R.H., 0 months): 1.0% | Total impurities content % (HPLC) ([7]; 40° C./75% R.H., 0 months): 0.03% | Water content (K.F %) ([7]; 40° C./75% R.H., 0 months): 5.27% | Appearance ([7]; 40° C./75% R.H., 0 months, limit white to ivory powder): Compl. | Appearance ([7]; 40° C./75% R.H., 1 month): Compl. | Assay % (HPLC) ([7]; 40° C./75% R.H., 1 month): 96.93% | DFL23803 (HPLC) by-product content ([7]; 40° C./75% R.H., 1 month): ≤0.11% | Enantiomeric purity % (HPLC): DF2703Y content ([7]; 40° C./75% R.H., 1 month): 1.0% | Total impurities content % (HPLC) ([7]; 40° C./75% R.H., 1 month): 0.03% | Water content (K.F %) ([7]; 40° C./75% R.H., 1 month): 5.27% | Appearance ([7]; 40° C./75% R.H., 3 months): Compl. | Assay % (HPLC) ([7]; 40° C./75% R.H., 3 months): 97.67% | DFL23803 (HPLC) by-product content ([7]; 40° C./75% R.H., 3 months): ≤0.11% | Enantiomeric purity % (HPLC): DF2703Y content ([7]; 40° C./75% R.H., 3 months): 1.0% | Total impurities content % (HPLC) ([7]; 40° C./75% R.H., 3 months): 0.03% | Water content (K.F %) ([7]; 40° C./75% R.H., 3 months): 5.12% | Appearance ([7]; 40° C./75% R.H., 6 months): Compl. | Assay % (HPLC) ([7]; 40° C./75% R.H., 6 months): 96.94% | DFL23803 (HPLC) by-product content ([7]; 40° C./75% R.H., 6 months): ≤0.11% | Enantiomeric purity % (HPLC): DF2703Y content ([7]; 40° C./75% R.H., 6 months): 1.0% | Total impurities content % (HPLC) ([7]; 40° C./75% R.H., 6 months): 0.03% | Water content (K.F %) ([7]; 40° C./75% R.H., 6 months): 4.95% | Appearance ([7]; 40° C./75% R.H., 12 months): Compl. | Assay % (HPLC) ([7]; 40° C./75% R.H., 12 months): 100.3% | DFL23803 (HPLC) by-product content ([7]; 40° C./75% R.H., 12 months): ≤0.11% | Enantiomeric purity % (HPLC): DF2703Y content ([7]; 40° C./75% R.H., 12 months): 1.0% | Total impurities content % (HPLC) ([7]; 40° C./75% R.H., 12 months): 0.02% | Water content (K.F %) ([7]; 40° C./75% R.H., 12 months): 5.17% | Time completely stable ([7]; accelerated conditions B, 40° C. and 75% R.H.): ≥ 12 months | Hygroscopicity ([7]; unchanged water content for at least 12 months under accelerated stability conditions): not hygroscopic
SMILES: C[C@H](C(=O)[O-])c1ccc(Nc2nc(C(F)(F)F)cs2)cc1.O.[Na+] [monohydrate DF2755A, crystalline monohydrate sodium (2S)-2-(4-{[4-(trifluoromethyl)-1,3-thiazol-2-yl]amino}phenyl) propanoate]
DSC profile over time ([5]; 30° C./65% R.H.): substantially the same DSC profile over time | DSC profile over time ([7]; conditions B, 40° C./75% R.H.): substantially the same DSC profile over time
